Source: patent US20260125371A1, “METHOD FOR INHIBITING CLOSTRIDIOIDES DIFFICILE SPORE GERMINATION” (UNIVERSITY OF NOTRE DAME DU LAC, priority 2022, published 2026)
≈ marks a conversion by molar mass, not a printed value. Where “and” joins values, the source holds several entries; their conditions need not be identical. Identical values can stand only once.

Legend:
[1] = tested on: C. difficile ATCC 43255; assay: Determination of minimal-inhibitory concentrations (microdilution), C. difficile ATCC 43255; assay type: cell-based, Clostridioides difficile; settings: for MIC (μg/mL) 48 h: C. difficile ATCC 43255, 48-h incubation; for MIC (μg/mL) 24 h: C. difficile ATCC 43255, 24 h
[2] = tested on: S. aureus; assay: MIC against S. aureus strains; assay type: cell-based; settings: S. aureus ATCC 29213, 24 h

## Oc1ccc(-c2nc(-c3ccc(Oc4ccc(C(F)(F)F)cc4)cc3)no2)cc1O [Compound 12]
[1]
  MIC (μg/mL) 48 h: 128 µg/mL and >128 µg/mL
  MIC (μg/mL) 24 h: >128 µg/mL
[2]
  MIC (μg/mL) 24 h: 2 µg/mL (≈ 4.83 µM)

## COc1cc(-c2nc(-c3ccc(Oc4ccc(C(F)(F)F)cc4)cc3)no2)ccc1O [Compound 13]
[1]
  MIC (μg/mL) 48 h: 16 µg/mL (≈ 37.4 µM)
  MIC (μg/mL) 24 h: 16 µg/mL (≈ 37.4 µM)
[2]
  MIC (μg/mL) 24 h: >128 µg/mL

## O=c1ccc(-c2nc(-c3ccc(Oc4ccc(C(F)(F)F)cc4)cc3)no2)c[nH]1 [Compound 14]
[1]
  MIC (μg/mL) 48 h: >128 µg/mL
  MIC (μg/mL) 24 h: >128 µg/mL
[2]
  MIC (μg/mL) 24 h: >128 µg/mL

## Nc1cc(-c2nc(-c3ccc(Oc4ccc(C(F)(F)F)cc4)cc3)no2)cnc1O [Compound 15]
[1]
  MIC (μg/mL) 48 h: >128 µg/mL
  MIC (μg/mL) 24 h: >128 µg/mL
[2]
  MIC (μg/mL) 24 h: >128 µg/mL

## FC(F)(F)c1ccc(Oc2ccc(-c3noc(-c4ccc(Br)cc4)n3)cc2)cc1 [Compound 18]
[1]
  MIC (μg/mL) 48 h: >128 µg/mL
  MIC (μg/mL) 24 h: >128 µg/mL
[2]
  MIC (μg/mL) 24 h: >128 µg/mL

## O=[N+]([O-])c1ccc(-c2nc(-c3ccc(Oc4ccc(C(F)(F)F)cc4)cc3)no2)cc1 [Compound 19]
[1]
  MIC (μg/mL) 48 h: >128 µg/mL
  MIC (μg/mL) 24 h: >128 µg/mL
[2]
  MIC (μg/mL) 24 h: ≥128 µg/mL

## Nc1ccc(-c2nc(-c3ccc(Oc4ccc(C(F)(F)F)cc4)cc3)no2)cc1F [Compound 20]
[1]
  MIC (μg/mL) 48 h: >128 µg/mL
  MIC (μg/mL) 24 h: >128 µg/mL
[2]
  MIC (μg/mL) 24 h: 2 µg/mL (≈ 4.82 µM)

## COc1ccc(-c2nc(-c3ccc(Oc4ccc(C(F)(F)F)cc4)cc3)no2)cc1[N+](=O)[O-] [Compound 22]
[1]
  MIC (μg/mL) 48 h: >128 µg/mL
  MIC (μg/mL) 24 h: >128 µg/mL
[2]
  MIC (μg/mL) 24 h: >128 µg/mL

## Nc1cc(-c2nc(-c3ccc(Oc4ccc(C(F)(F)F)cc4)cc3)no2)ccn1 [Compound 24]
[1]
  MIC (μg/mL) 48 h: >128 µg/mL
  MIC (μg/mL) 24 h: >128 µg/mL
[2]
  MIC (μg/mL) 24 h: >128 µg/mL

## FC(F)(F)c1ccc(Oc2ccc(-c3noc(-c4cc[nH]n4)n3)cc2)cc1 [Compound 25]
[1]
  MIC (μg/mL) 48 h: >128 µg/mL
  MIC (μg/mL) 24 h: >128 µg/mL
[2]
  MIC (μg/mL) 24 h: >128 µg/mL
